How the values were obtained:
[1] = tested on: SARS-CoV; conditions: cited from earlier work; for Inhibitory activity against SARS-CoV: Thorax 2004, 59: 252-256
[2] = tested on: HIV-1 isolates; conditions: low passage clinical isolates, n=13; cited from earlier work
[3] = tested on: SARS-CoV-2; assay: Ritonavir reducing viral nucleic acid load in SARS-CoV-2 infected Vero E6 cells (qRT-PCR); type: cell-based, SARS-CoV-2 (nCoV-2019BetaCoV/Wuhan/WIV04/2019 strain); conditions: for Copy number of virus genome: Vero E6 cells, supernatant, vehicle 5762396
Experimental: (1) Drug Treatment of Virus-Infected Cells
Vero E6 cells (purchased from ATCC, Catalog No. 1586) was inoculated on a 24-well plate, cultured for 24 hours; then virus infection was carried out. Specifically, SARS-CoV-2 (2019-nCoV) virus (nCoV-2019BetaCoV/Wuhan/WIV04/2019 strain, provided by Wuhan Institute of Virology, Chinese Academy of Sciences) was diluted with 2% cell maintenance solution (formulation: FBS (purchased from Gibco company, Catalog No. 16000044) was added to MEM (purchased from Gibco, Catalog No. 10370021) at a volume ratio of 2%, thereby obtaining the 2% cell maintenance solution) to a corresponding concentration, and then added to a 24-well plate so that each well contained a viral load of 100TCID50. […] To the vehicle control group, the 2% cell maintenance solution without any test drugs was added.
RNA extraction kit was purchased from Qiagen Company, Catalog No. 74106. The consumables (spin columns, RNase-free 2 ml collection tubes, etc.) and reagents (RLT, RW1, RPE, RNase-free water, etc.) involved in the following RNA extraction steps were part of the kit. The following extraction steps were recommended steps in the kit instruction.
1) 100 μL of the supernatant was taken from the tested plate and added to a nuclease-free EP tube, then 350 μL of Buffer RLT was added to each well and mixed by beating with a transfer liquid gun until complete lysis was achieved, then centrifugation was carried out to obtain a supernatant;
2) an equal volume of 70% ethanol was added to the supernatant obtained in 1) and mixed well;
3) the mixture solution obtained in 2) was transferred to a RNase-free spin column, and centrifuged at 12000 rpm for 15 seconds, and the waste liquid was discarded;
4) 700 μL of Buffer RW1 was added to the spin column, and centrifuged at 12000 rpm for 15 seconds to clean the spin column, and the waste liquid was discarded;
5) 500 μL of Buffer RPE was added to the spin column, and centrifuged at 12000 rpm for 15 seconds to clean the spin column, and the waste liquid was discarded;
6) 500 μL of Buffer RPE was added to the spin column, and centrifuged at 12000 rpm for 2 min to clean the spin column, the waste was discarded;
7) a new RNase-free 2 ml collection tube was used for replacement, centrifugation was carried out at 12000 rpm for 1 min, the spin column was dried, and then the spin column was transferred to a 1.5 ml collection tube in step 8);
8) a new 1.5 ml collection tube was used for replacement, in which the spin column dried in step 7) was placed, and […] of RNase-free water was added to the spin column, and centrifugation was carried out at 12000 rpm for 2 minutes, the obtained eluate contained the corresponding RNA, then the RNase inhibitor (purchased from NEB company, Catalog No. […]) was added, and Nano Drop (purchased from Thermo scientific, Nano Drop One) was used to detect each RNA concentration.
(3) RNA Reverse Transcription
In the experiment, the reverse transcription kit (PrimeScript™ RT reagent Kit with gDNA Eraser, Catalog No. RRO47Q) produced by TaKaRa was used for RNA reverse transcription.
The steps were as follows.
(1) Removal of gDNA: RNA samples of each experimental group were collected, 1 μg of each sample was taken for reverse transcription. First, 2 μl of 5×gDNA Eraser Buffer was added to the RNA sample of each experimental group, the reaction system was supplemented with RNase-free water to reach 10 μl, mixed well, and subjected to water bath at 42° C. for 2 min to remove the gDNA that might be present in the sample;
(2) Reverse transcription: Appropriate amounts of enzyme, primer Mix and reaction buffer were added to the sample obtained in […], RNase-free water was added to supplement to reach a volume of 20 μl, the reaction was performed in a water bath at 37° C. for 15 minutes, and then in water bath at 85° C. for 5 seconds, to obtain cDNA by transcription. […]

Row | Structure (SMILES) | Inhibitory activity against SARS-CoV [1] | Effectiveness against SARS-CoV ([1]; Biochemical and Biophysical Research Communications 318 (2004) 719-725) | EC50 [2] | Copy number of virus genome ([3]; 0.14 μM, 48 hours after infection) | Copy number of virus genome ([3]; 0.41 μM, 48 hours after infection) | Copy number of virus genome ([3]; 1.23 μM, 48 hours after infection) | Copy number of virus genome ([3]; 3.70 μM, 48 hours after infection) | Copy number of virus genome ([3]; 11.11 μM, 48 hours after infection) | Copy number of virus genome ([3]; 33.33 μM, 48 hours after infection) | Reduction of viral RNA load in Vero E6 cells infected by SARS-CoV-2 ([3]; 48 hours after infection, FIG. 1) | Inhibition of the replication of SARS-CoV-2 virus genome in the infected supernatant ([3]; at concentrations of 33 μM, 11.1 μM)
1 | Cc1cccc(C)c1OCC(=O)N[C@@H](Cc1ccccc1)[C@@H](O)C[C@H](Cc1ccccc1)NC(=O)[C@H](C(C)C)N1CCCNC1=O [lopinavir] | inhibits SARS-CoV | – | – | – | – | – | – | – | – | – | –
2 | CC(C)c1nc(CN(C)C(=O)N[C@H](C(=O)N[C@@H](Cc2ccccc2)C[C@H](O)[C@H](Cc2ccccc2)NC(=O)OCc2cncs2)C(C)C)cs1 [ritonavir, [5S-(5R,8R,10R,11R)]-10-hydroxy-2-methyl-5-(1-methylethyl)-1-[2-(1-methylethyl)-4-thiazolyl]-3,6-dioxo-8,11-bis(phenylmethyl)-2,4,7,12-tetraazatridecan-13-oic acid, 5-thiazolyl methyl ester] | does not have inhibitory activity | ineffective | 22 nM | 6032699 | 5632446 | 5565821 | 6213595 | 2236225 | 1855399 | inhibitory activity is dose-dependent | could effectively inhibit
